What was measured:
[1] = tested on: Erysiphe graminis f.sp. tritici; experiment: Efficacy against Erysiphe graminis f.sp. tritici on wheat (Example B-1), spray application; assay type: in vivo, Erysiphe graminis f.sp. tritici on wheat plants c.v. Arina
Text: (§1) A synergistic effect exists whenever the action of an active ingredient combination is greater than the sum of the actions of the individual components.
(§2) The action to be expected E for a given active ingredient combination obeys the so-called COLBY formula and can be calculated as follows (COLBY, S. R. “Calculating synergistic and antagonistic responses of herbicide combination”. Weeds, Vol. 15, pages 20-22; 1967):
(§3) According to Colby, the expected (additive) action of active ingredients I+II using p+q ppm of active ingredient is [formula]
(§4) If the action actually observed (O) is greater than the expected action (E), then the action of the combination is superadditive, i.e. there is a synergistic effect. Alternatively the synergistic action may also be determined from the dose response curves according to the so-called WADLEY method. With this method the efficacy of the a.i. is determined by comparing the degree of fungal attack on treated plants with that on untreated, similarly inoculated and incubated check plants. Each a.i. is tested at 4 to 5 concentrations. The dose response curves are used to establish the EC90 (i.e. concentration of a.i. providing 90% disease control) of the single compounds as well as of the combinations (EC 90observed). The thus experimentally found values of the mixtures at a given weight ratio are compared with the values that would have been found were only a complementary efficacy of the components was present (EC 90 (A+B)expected). The EC90 (A+B)expected is calculated according to Wadley (Levi et al., EPPO- Bulletin 16, 1986, 651-657): [formula]
Wheat plants c.v. “Arina”, about 10 days old, are sprayed with aqueous suspensions of the active ingredients or mixtures thereof. One day later, the plants are inoculated by dusting with spores of Erysiphe graminis. The tests may also be carried out with curative applications, i.e. application 1-3 days after artificial inoculation of the plants. The plants are incubated in the greenhouse or in climate chambers at 20° C., 70% relative humidity. 7 to 10 days after inoculation, fungal attack on primary leaves is assessed.
(§5) The efficacy of the test combinations and the single active ingredients in the above tests is determined by comparing the degree of fungal attack with that on untreated, similarly inoculated check plants.

[2] = tested on: Helminthosporium gramineum; experiment: Activity against Helminthosporium gramineum on barley (Example B-12), seed treatment; assay type: in vivo; conditions: Table 6
Text: as §1, §2, §3, §4
Barley seed which is infected with H.gramineum is harvested from the field. […] About 60 days after sowing, the number of existing plants and the number of infected plants are determined. Symptoms are expressed as typical stripe-shaped spots on the first leaf. The total infection rate is compared with the total infection rate in the comparison seed trays with untreated seeds and expressed as the total percentage infection rate.

Puccinia recondita = experiment: Activity against Puccinia recondita in wheat (B-7), spray application; assay type: in vivo, Puccinia recondita on wheat plants c.v. Arina; conditions: Table 5
Text: as §1, §2, §3, §4
Wheat plants c.v. “Arina”, about 10 days old, are sprayed with aqueous suspensions of the active ingredients or mixtures thereof. One day later, the plants are inoculated with a spore suspension of the fungus. The test may also be carried out with curative applications, i.e. application 1-3 days later after artificial inoculation of the plants. The plants are incubated in a growth chamber for 2 days at °20° C. and 95-100% relative humidity, then further 10 days at 20° C. and 70% relative humidity. Fungal attack on primary leaves is assessed.
as §5

SMILES: N#Cc1c[nH]cc1-c1cccc2c1OC(F)(F)O2 [Fludioxonil, fludioxonil, reference compound]
- % activity observed ([1]; Table 1, 10 ppm alone): 2%
- % activity observed ([1]; Table 1, 25 ppm alone): 0%
- % activity observed ([1]; Table 1, 50 ppm alone): 6%
- % activity observed ([1]; Table 1, 100 ppm alone): 14%
- % activity observed ([1]; Table 1, 250 ppm alone): 19%
- % activity observed ([1]; Table 1, 500 ppm alone): 27%

SMILES: CCCOc1nc2sc(Cl)cc2c(=O)n1CCC [cmpd. I.01]
- % activity observed ([2]; 20 g a.i./100 kg seed alone): 11%
- % activity observed ([1]; Table 1, 10 ppm alone): 0%
- % activity observed ([1]; Table 1, 25 ppm alone): 0%
- % activity observed ([1]; Table 1, 50 ppm alone): 12%
- % activity observed ([1]; Table 1, 100 ppm alone): 26%
- % activity observed ([1]; Table 1, 250 ppm alone): 34%
- % activity observed ([1]; Table 1, 500 ppm alone): 66%
- % activity observed ([1]; Table 2, 1 ppm alone): 0%
- % activity observed ([1]; Table 2, 2.5 ppm alone): 0%
- % activity observed ([1]; Table 2, 5 ppm alone): 8%
- % activity observed ([1]; Table 2, 10 ppm alone): 8%
- % activity observed ([1]; Table 2, o.5 ppm alone): 0%
- % activity observed ([1]; Table 3, 0.5 ppm alone): 2%
- % activity observed ([1]; Table 3, 1 ppm alone): 0%
- % activity observed ([1]; Table 3, 2.5 ppm alone): 14%
- % activity observed ([1]; Table 3, 5 ppm alone): 8%
- % activity observed ([1]; Table 3, 10 ppm alone): 4%
- % activity observed ([1]; Table 4, 0.25 ppm alone): 0%
- % activity observed ([1]; Table 4, 0.5 ppm alone): 0%
- % activity observed ([1]; Table 4, 1 ppm alone): 0%
- % activity observed ([1]; Table 4, 2.5 ppm alone): 0%
- % activity observed (Puccinia recondita; 0.5 ppm alone): 0%
- % activity observed (Puccinia recondita; 1 ppm alone): 0%
- % activity observed (Puccinia recondita; 2.5 ppm alone): 0%
- % activity observed (Puccinia recondita; 5 ppm alone): 0%
- % activity observed (Puccinia recondita; 10 ppm alone): 0%
- % activity observed (Puccinia recondita; 25 ppm alone): 0%

SMILES: CON=C(C(=O)OC)c1ccccc1CON=C(C)c1cccc(C(F)(F)F)c1 [cmpd. V, methyl 2-{2-[4-(3-trifluoromethylphenyl)-3-aza-2-oxa-3-pentenyl]-phenyl}-2-methoxyimino-acetate, reference compound]
- inhibition at 1 ppm (Puccinia recondita; Puccinia recondita, 1 ppm alone, read-out: % activity observed): 17%
- inhibition at 2.5 ppm (Puccinia recondita; Puccinia recondita, 2.5 ppm alone, read-out: % activity observed): 32%
- inhibition at 5 ppm (Puccinia recondita; Puccinia recondita, 5 ppm alone, read-out: % activity observed): 38%
- inhibition at 10 ppm (Puccinia recondita; Puccinia recondita, 10 ppm alone, read-out: % activity observed): 37%

SMILES: CC(C1CC1)C(O)(Cn1cncn1)c1ccc(Cl)cc1 (stereo not drawn) [cyproconazole, reference compound]
- % activity observed ([1]; Table 2, 1 ppm alone): 8%
- % activity observed ([1]; Table 2, 2.5 ppm alone): 49%
- % activity observed ([1]; Table 2, 5 ppm alone): 100%
- % activity observed ([1]; Table 2, 10 ppm alone): 100%

SMILES: CC(Cc1ccc(C(C)(C)C)cc1)CN1CCCCC1 (stereo not drawn) [fenpropidine, reference compound]
- inhibition at 2.5 ppm ([1]; Blumeria graminis, Table 4, 2.5 ppm alone, read-out: % activity observed): 35%
- inhibition at 5 ppm ([1]; Blumeria graminis, Table 4, 5 ppm alone, read-out: % activity observed): 51%
- inhibition at 10 ppm ([1]; Blumeria graminis, Table 4, 10 ppm alone, read-out: % activity observed): 63%

SMILES: CCCC1COC(Cn2cncn2)(c2ccc(Cl)cc2Cl)O1 (stereo not drawn) [propiconazole, reference compound]
- % activity observed ([1]; Table 3, 0.1 ppm alone): 0%
- % activity observed ([1]; Table 3, 0.25 ppm alone): 0%
- % activity observed ([1]; Table 3, 0.5 ppm alone): 6%
- % activity observed ([1]; Table 3, 1 ppm alone): 8%
- % activity observed ([1]; Table 3, 2.5 ppm alone): 72%

SMILES: CC1(C)CC/C(=C\c2ccc(Cl)cc2)C1(O)Cn1cncn1 (stereo not drawn) [triticonazole]
- % activity observed ([2]; 20 g a.i./100 kg seed alone): 12%
- % activity observed ([2]; 40 g a.i./100 kg seed alone): 22%
